Target: DCN1-UBC12 interaction (Homo sapiens (Human), UniProt Q96GG9)
Assay: biochemical
Format: binding
Conditions: TR-FRET IC50

Sequence of DCN1-UBC12 interaction (Q96GG9 60-248 limits assumed): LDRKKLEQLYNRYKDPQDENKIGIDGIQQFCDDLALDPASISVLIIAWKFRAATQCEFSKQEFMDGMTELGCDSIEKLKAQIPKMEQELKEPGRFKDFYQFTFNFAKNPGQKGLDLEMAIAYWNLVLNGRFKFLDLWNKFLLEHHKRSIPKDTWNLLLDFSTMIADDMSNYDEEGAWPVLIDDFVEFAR

Row | Structure (SMILES) | IC50 [nM]
1 | CCCC(C)N1CCC(N(Cc2ccccc2)C(=O)Nc2ccc(C(C)(C)C)cc2)CC1 (centres unmarked) [A100] | 1410

Same assay, conditions: read-out: TR-FRET IC50

Row | Structure (SMILES) | IC50 [nM]
2 | CCCN1CCC(N(CC2CCCCC2)C(=O)Nc2cccc(C(F)(F)F)c2)CC1 [A92, 1-(Cyclohexylmethyl)-1-(1-Propylpiperidin-4-yl)-3-(3-(Trifluoromethyl)Phenyl)Urea] | 1230
3 | CCCC(C)N1CCC(N(Cc2ccccc2)C(=O)Nc2cccc(OCc3ccccc3)c2)CC1 (centres unmarked) [A94] | 1290
4 | CCCCN1CCC(N(Cc2ccccc2)C(=O)Nc2cccc(C)c2)CC1 [A95] | 1320
5 | CCCCN(C(=O)Nc1cccc(C(F)(F)F)c1)C1CCN(CCC)CC1 [A96, 1-Butyl-1-(1-Propylpiperidin-4-yl)-3-(3-(Trifluoromethyl)Phenyl)Urea] | 1330
6 | CCCC(C)N1CCC(N(Cc2ccccc2)C(=O)Nc2cc(C)cc(C)c2)CC1 (centres unmarked) [A98] | 1380
7 | CCCC(C)N1CCC(N(Cc2ccccc2)C(=O)Nc2cc(C)cc(Cl)c2)CC1 (centres unmarked) [A99] | 1410
8 | CCCC(C)N1CCC(N(Cc2ccccc2)C(=O)Nc2cc(C(F)(F)F)ccc2Cl)CC1 (centres unmarked) [A101] | 1600
9 | CCCC(C)N1CCC(N(Cc2ccccc2)C(=O)Nc2cccc(Cl)c2Cl)CC1 (centres unmarked) [A103] | 1740
10 | CCCCN1CCC(N(Cc2ccccc2)C(=O)Nc2cccc([N+](=O)[O-])c2)CC1 [A104] | 1850
11 | O=C(Nc1cccc(C(F)(F)F)c1)N(Cc1ccccc1)C1CC2CCC(C1)N2Cc1ccccc1 (centres unmarked) [A105] | 1870
12 | CCCC(C)N1CCC(N(Cc2ccccc2)C(=O)Nc2cc(S(F)(F)(F)(F)F)ccc2F)CC1 (centres unmarked) [A107] | 2050
13 | CCCC(C)N1CCC(N(Cc2ccccc2)C(=O)Nc2ccc3cn[nH]c3c2)CC1 (centres unmarked) [A108] | 2110
14 | CCCC(C)N1CCC(N(Cc2ccccc2)C(=O)Nc2ccc(OC)c(F)c2)CC1 (centres unmarked) [A109] | 2200
15 | CCCC(C)N1CCC(N(Cc2ccccc2)C(=O)Nc2ccc(C3CCCCC3)cc2)CC1 (centres unmarked) [A110] | 2210
16 | CCCC(C)N1CCC(N(Cc2ccccc2)C(=O)Nc2ccc(Br)cc2Cl)CC1 (centres unmarked) [A111] | 2240
17 | CCCC(C)N1CCC(N(Cc2ccccc2)C(=O)Nc2cccc(N(C)C)c2)CC1 (centres unmarked) [A112] | 2300
18 | CCCC(C)N1CCC(N(Cc2ccccc2)C(=O)Nc2cc(Cl)cc(C(F)(F)F)c2)CC1 (centres unmarked) [A113] | 2350
19 | CCCCN1CCC(N(Cc2ccc3c(c2)OCO3)C(=O)Nc2ccc(F)c(C(F)(F)F)c2)CC1 [A114] | 2350
20 | CCCC(C)N1CCC(N(Cc2ccccc2)C(=O)Nc2ccc(O)cc2C)CC1 (centres unmarked) [A115] | 2360
21 | CCCC(C)N1CCC(N(Cc2ccccc2)C(=O)Nc2ccc(-c3cccc(C(=O)OC)c3)cc2)CC1 (centres unmarked) [A116] | 2370

Row | Structure (SMILES) | IC50 [nM]
22 | CC(C1CCC1)N1CCC(N(Cc2ccccc2)C(=O)Nc2cc(F)cc(C(F)(F)F)c2)CC1 (centres unmarked) [A118] | 143
23 | C#CCCCN1CCC(N(Cc2ccccc2NC(=O)C=C)C(=O)Nc2cccc(C(F)(F)F)c2)CC1 [A119] | 353
24 | CCC(CC)N1CCC(N(Cc2ccccc2)C(=O)Nc2cc(F)cc(C(F)(F)F)c2)CC1 [A120] | 616
25 | CCC(C)CN1CCC(N(Cc2ccccc2)C(=O)Nc2cc(F)cc(C(F)(F)F)c2)CC1 (centres unmarked) [A121] | 1000
26 | CC(C)C(C)N1CCC(N(Cc2ccccc2)C(=O)Nc2cc(F)cc(C(F)(F)F)c2)CC1 (centres unmarked) [A122] | 1120
27 | C#Cc1ccccc1CN1CCC(N(Cc2ccccc2)C(=O)Nc2cc(F)cc(C(F)(F)F)c2)CC1 [A123] | 1130
28 | CCCCCN1CCC(N(Cc2ccccc2)C(=O)Nc2cc(F)cc(C(F)(F)F)c2)CC1 [A124] | 1590
29 | CC(C1CCCCC1)N1CCC(N(Cc2ccccc2)C(=O)Nc2cc(F)cc(C(F)(F)F)c2)CC1 (centres unmarked) [A125] | 1770
30 | CC(CCN1CCC(N(Cc2ccccc2)C(=O)Nc2cc(F)cc(C(F)(F)F)c2)CC1)c1ccccc1 (centres unmarked) [A127] | 2230
31 | CC(c1ccc2c(c1)OCO2)N1CCC(N(Cc2ccccc2)C(=O)Nc2cc(F)cc(C(F)(F)F)c2)CC1 (centres unmarked) [A128] | 2390
32 | CCCC(C)N1CCC(N(Cc2ccccc2)C(=O)Nc2cccc(-c3ccccc3)c2)CC1 (centres unmarked) [A129] | 2670
33 | CCCN1CCC(N(CCC(C)C)C(=O)Nc2cccc(C(F)(F)F)c2)CC1 [A130, 1-Isopentyl-1-(1-Propylpiperidin-4-yl)-3-(3-(Trifluoromethyl)Phenyl)Urea] | 2960
34 | CCCC(C)N1CCC(N(Cc2ccccc2)C(=O)Nc2cccc(OC)c2)CC1 (centres unmarked) [A131] | 3150
35 | CCCC(C)N1CCC(N(Cc2ccccc2)C(=O)Nc2cccc(OC(C)C)c2)CC1 (centres unmarked) [A132] | 3170
36 | O=C(Nc1cc(F)cc(C(F)(F)F)c1)N(Cc1ccccc1)C1CCN(CCCc2ccccc2)CC1 [A133] | 3210
37 | C=CC(=O)NCCCN(C(=O)Nc1cccc(C(F)(F)F)c1)C1CCN(C(C)CCC)CC1 (centres unmarked) [A134] | 3340
38 | Cc1ccccc1CN1CCC(NC(=O)Nc2cccc(C(F)(F)F)c2)CC1 [A135] | 3350
39 | CCCCN1CCC(N(Cc2ccccc2)C(=O)Nc2cccc(F)c2)CC1 [A136] | 3570
40 | CCCC(C)N1CCC(N(Cc2ccccc2)C(=O)Nc2ccc(OC)c(Cl)c2)CC1 (centres unmarked) [A138] | 4050
41 | CCCC(C)N1CCC(N(Cc2ccccc2)C(=O)Nc2cccc3cccnc23)CC1 (centres unmarked) [A139] | 4130

Row | Structure (SMILES) | IC50 [nM]
42 | CCCC(C)N1CCC(N(Cc2ccccc2)C(=O)Nc2cccc(C(C)(C)C)c2)CC1 (centres unmarked) [A140] | 4200
43 | CCCC(C)N1CCC(N(Cc2ccccc2)C(=O)Nc2ccc(Cl)cc2C#N)CC1 (centres unmarked) [A141] | 4220
44 | CCCCN1CCC(N(Cc2ccccc2)C(=O)Nc2cc(F)cc(F)c2)CC1 [A142] | 4260
45 | O=C(Nc1cc(F)cc(C(F)(F)F)c1)N(Cc1ccccc1)C1CCN(C/C=C/c2ccccc2)CC1 [A143] | 4270
46 | O=C(Nc1cc(F)cc(C(F)(F)F)c1)N(Cc1ccccc1)C1CCN(CC2CCOC2)CC1 (centres unmarked) [A144] | 4490
47 | CC(c1ccccn1)N1CCC(N(Cc2ccccc2)C(=O)Nc2cc(F)cc(C(F)(F)F)c2)CC1 (centres unmarked) [A145] | 4570
48 | CCCN1CCC(N(CC(C)C)C(=O)Nc2cccc(C(F)(F)F)c2)CC1 [A146, 1-Isobutyl-1-(1-Propylpiperidin-4-yl)-3-(3-(Trifluoromethyl)Phenyl)Urea] | 4810
49 | CC(c1ccccc1)N1CCC(N(Cc2ccccc2)C(=O)Nc2cc(F)cc(C(F)(F)F)c2)CC1 (centres unmarked) [A148] | 4980
50 | CCCC(C)N1CCC(N(Cc2ccccc2)C(=O)Nc2cccc(F)c2C)CC1 (centres unmarked) [A151] | 5660
51 | CCCC(C)N1CCC(N(Cc2ccccc2)C(=O)Nc2cc(Cl)ccc2Cl)CC1 (centres unmarked) [A152] | 6270
52 | CCCC(C)N1CCC(N(Cc2ccccc2)C(=O)Nc2ccn(-c3ccc(Cl)cc3)n2)CC1 (centres unmarked) [A153] | 6470
53 | CCCC(C)N1CCC(N(Cc2ccccc2)C(=O)Nc2cc(C(F)(F)F)ccc2F)CC1 (centres unmarked) [A154] | 6510
54 | Cc1cccc(CN2CCC(NC(=O)Nc3cccc(C(F)(F)F)c3)CC2)c1 [A155, 1-(1-(3-Methylbenzyl)Piperidin-4-yl)-3-(3-(Trifluoromethyl)Phenyl)Urea] | 6770
55 | CCCCN1CCC(C(Cc2ccccc2)C(=O)Nc2cccc(C(F)(F)F)c2)CC1 (centres unmarked) [A156] | 7110
56 | CCCC(C)N1CCC(N(Cc2ccccc2)C(=O)Nc2ccc(C)cc2F)CC1 (centres unmarked) [A157] | 7110
57 | CCCC(C)N1CCC(N(Cc2ccccc2)C(=O)Nc2ccc(OC)cc2)CC1 (centres unmarked) [A158] | 7670
58 | CCCC(C)N1CCC(N(Cc2ccccc2)C(=O)Nc2cc(Cl)ccc2F)CC1 (centres unmarked) [A159] | 7720
59 | CC(=O)O[C@H]1CN(Cc2ccccc2)CC[C@@H]1NC(=O)Nc1cccc(C(F)(F)F)c1 [A160] | 7890

Reference: patent publication US11116757B2 (priority 2015, dated 2021)
